Measured values published in ChEMBL document CHEMBL1201862, “PubChem BioAssay data set” (2004).
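How tested: cells in 96-well plates exposed to compound for 48 hours at five concentrations. At the GI50, growth is halved.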 Active and inactive are the calls of the source. Rule as the data show it: active = GI50 up to about 1.1 µM and inactive = higher.

Legend:
Experiment in all cases: inhibition of tumour cell growth, NCI panel, 48 h
A498 = test system: A498
A549 = test system: A549
ACHN = test system: ACHN
CCRF-CEM = test system: CCRF-CEM
COLO 205 = test system: COLO 205
DLD-1 = test system: DLD-1
DMS-114 = test system: DMS-114
DMS-273 = test system: DMS-273
EKVX = test system: EKVX
HCC 2998 = test system: HCC 2998
HCT-116 = test system: HCT-116
HCT-15 = test system: HCT-15
HL-60 = test system: HL-60
HOP-18 = test system: HOP-18
HOP-92 = test system: HOP-92
HT-29 = test system: HT-29
IGROV-1 = test system: IGROV-1
K562 = test system: K562
KM-20L2 = test system: KM-20L2
KM12 = test system: KM12
LOX IMVI = test system: LOX IMVI
LXFL 529 = test system: LXFL 529
M14 = test system: M14
M19-MEL = test system: M19-MEL
MOLT-4 = test system: MOLT-4
Malme-3M = test system: Malme-3M
NCI-H23 = test system: NCI-H23
NCI-H460 = test system: NCI-H460
NCI-H522 = test system: NCI-H522
OVCAR-3 = test system: OVCAR-3
OVCAR-5 = test system: OVCAR-5
OVCAR-8 = test system: OVCAR-8
RXF 393 = test system: RXF 393
RXF 631 = test system: RXF 631
SF-268 = test system: SF-268
SF-295 = test system: SF-295
SF-539 = test system: SF-539
SK-MEL-28 = test system: SK-MEL-28
SK-MEL-2 = test system: SK-MEL-2
SK-MEL-5 = test system: SK-MEL-5
SK-OV-3 = test system: SK-OV-3
SN12C = test system: SN12C
SNB-19 = test system: SNB-19
SNB-75 = test system: SNB-75
SNB-78 = test system: SNB-78
SR = test system: SR
SW-620 = test system: SW-620
TK-10 = test system: TK-10
U-251 = test system: U-251
UACC-257 = test system: UACC-257
UACC-62 = test system: UACC-62
UO-31 = test system: UO-31
XF498 = test system: XF498

In the case of N#CC1(CCCI)CCCC1, the GI50 (A498) is reported as 35.9 µM (inactive), the GI50 (A549) is reported as 20.6 µM (inactive) and the GI50 (ACHN) is reported as 21.4 µM (inactive). For the same compound, the GI50 (CCRF-CEM) was 11.5 µM (inactive), the GI50 (COLO 205) was 27.8 µM (inactive) and the GI50 (DLD-1) was 19.1 µM (inactive). For the same compound, the GI50 (DMS-114) was 3.72 µM (inactive), the GI50 (DMS-273) was 4.55 µM (inactive) and the GI50 (EKVX) was 47.4 µM (inactive). For the same compound, the GI50 (HCC 2998) was 33.7 µM (inactive), the GI50 (HCT-116) was 4.18 µM (inactive) and the GI50 (HCT-15) was 14.5 µM. For the same compound, the GI50 (HL-60) was 6.1 µM (inactive), the GI50 (HOP-18) was 13.5 µM (inactive) and the GI50 (HOP-92) was 15.6 µM (inactive). The GI50 (HT-29) was 15.2 µM (inactive), the GI50 (IGROV-1) was > 100 µM (inactive) and the GI50 (K562) was 27.7 µM (inactive). The GI50 (KM-20L2) was 22.6 µM (inactive), the GI50 (KM12) was 17.5 µM (inactive) and the GI50 (LOX IMVI) was 3.76 µM (inactive). The GI50 (LXFL 529) was 23.2 µM (inactive), the GI50 (M14) was 5.83 µM (inactive) and the GI50 (M19-MEL) was 5.36 µM (inactive). The GI50 (MOLT-4) was 13.8 µM (inactive), the GI50 (Malme-3M) was 18.8 µM (inactive) and the GI50 (NCI-H23) was 9.79 µM (inactive). For the same compound, the GI50 (NCI-H460) was 2.92 µM (inactive), the GI50 (NCI-H522) was 3.24 µM (inactive) and the GI50 (OVCAR-3) was 16 µM (inactive). The GI50 (OVCAR-5) was 25.1 µM (inactive), the GI50 (OVCAR-8) was 51.1 µM (inactive) and the GI50 (RXF 393) was 11 µM (inactive). For the same compound, the GI50 (RXF 631) was 1.34 µM (inactive), the GI50 (SF-268) was 12.6 µM (inactive) and the GI50 (SF-295) was 29.4 µM (inactive). For the same compound, the GI50 (SF-539) was 15.5 µM (inactive), the GI50 (SK-MEL-28) was 16.5 µM (inactive) and the GI50 (SK-MEL-2) was 15.9 µM (inactive). For the same compound, the GI50 (SK-MEL-5) was 12.9 µM (inactive), the GI50 (SK-OV-3) was 64.4 µM (inactive) and the GI50 (SN12C) was 12.3 µM (inactive). The GI50 (SNB-19) was 15.8 µM (inactive), the GI50 (SNB-75) was 1.53 µM (inactive) and the GI50 (SNB-78) was 20.1 µM (inactive). The GI50 (SR) was 15.4 µM (inactive), the GI50 (SW-620) was 10.7 µM (inactive) and the GI50 (TK-10) was 41.9 µM (inactive). For the same compound, the GI50 (U-251) was 13.4 µM (inactive), the GI50 (UACC-257) was 22.6 µM (inactive) and the GI50 (UACC-62) was 11 µM (inactive). The GI50 (UO-31) was 27.9 µM (inactive) and the GI50 (XF498) was 18.6 µM (inactive).
